tested on: RAW 264.7 cells; assay: Quantitative cell-permeability of FITC-labeled aMTD- or rPeptide-fused CRA recombinant proteins by flow cytometry; format: cell-based; conditions: cell-permeability of aMTD-fused CRA recombinant protein relative to negative control (A: rP38)
Text: The aMTDs and rPeptides were fluorescently labeled and compared based on the critical factors for cell-permeability by using flow cytometry and confocal laser scanning microscopy (FIG. 5 to 8). The cellular uptake of the peptide-fused non-functional cargo recombinant proteins could quantitatively be evaluated in flow cytometry, while confocal laser scanning microscopy allows intracellular uptake to be assessed visually. The analysis included recombinant proteins fused to a negative control [rP38] that has opposite characteristics (hydrophilic and aromatic sequence: YYNQSTCGGQCY) to the aMTDs (hydrophobic and aliphatic sequences). Relative cell-permeability (relative fold) of aMTDs to the negative control was also analyzed (TABLE 39 and FIG. 9).
Geometric means of negative control (histidine-tagged rP38-fused CRA recombinant protein) subtracted by that of naked protein (histidine-tagged CRA protein) lacking any peptide (rP38 or aMTD) was standardized as relative fold of 1.
For quantitative cell-permeability, the aMTD- or rPeptide-fused recombinant proteins were conjugated to fluorescein isothiocyanate (FITC) according to the manufacturer's instructions (Sigma-Aldrich, St. Louis, Mo.). RAW 264.7 cells were treated with 10 μM FITC-labeled recombinant proteins for 1 hour at 37° C., washed three times with cold PBS, treated with 0.25% tripsin/EDTA (Sigma-Aldrich, St. Louis, Mo.) for 20 minutes at 37° C. to remove cell-surface bound proteins. Cell-permeability of these recombinant proteins were analyzed by flow cytometry (Guava, Millipore, Darmstadt, Germany) using the FlowJo cytometric analysis software (FIG. 5 to 6). The relative cell-permeability of aMTDs were measured and compared with the negative control (rP38) and reference hydrophobic CPPs (MTM12 and MTD85) (TABLE 47).

Row | Substance | Relative Ratio (Fold) A
1 | 910 (VAALLPAVVVAP; Advanced Macromolecule Transduction Domain (aMTD) Sequences for Improvement of Cell-Permeability) [compound 910] | 148.5 Fold
2 | 503 (AAIIIVLPAALP; Advanced Macromolecule Transduction Domain (aMTD) Sequences for Improvement of Cell-Permeability) [compound 503] | 17.6 Fold
3 | 224 (ILAAVPIALAAP; Advanced Macromolecule Transduction Domain (aMTD) Sequences for Improvement of Cell-Permeability) [compound 224] | 15.8 Fold
4 | 165 (ALAVPVALAIVP; Advanced Macromolecule Transduction Domain (aMTD) Sequences for Improvement of Cell-Permeability) [compound 165] | 19.8 Fold
5 | 563 (ALAVIVVPALAP; Advanced Macromolecule Transduction Domain (aMTD) Sequences for Improvement of Cell-Permeability) [compound 563] | 47.1 Fold
6 | 625 (ILAAAAAPLIVP; Advanced Macromolecule Transduction Domain (aMTD) Sequences for Improvement of Cell-Permeability) [compound 625] | 20.9 Fold
7 | 484 (LAVVLAAPAIVP; Advanced Macromolecule Transduction Domain (aMTD) Sequences for Improvement of Cell-Permeability) [compound 484] | 15.6 Fold
8 | 481 (AIAIAIVPVALP; Advanced Macromolecule Transduction Domain (aMTD) Sequences for Improvement of Cell-Permeability) [compound 481] | 34.3 Fold
9 | 705 (IVAVALLPALAP; Advanced Macromolecule Transduction Domain (aMTD) Sequences for Improvement of Cell-Permeability) [compound 705] | 28.6 Fold

same assay, conditions: cell-permeability of aMTD-fused CRA recombinant protein relative to negative control rP38 (A type)

Row | Substance | Relative Ratio (Fold) A
10 | 204 (LIAALPAVAALP; Advanced Macromolecule Transduction Domain (aMTD) Sequences for Improvement of Cell-Permeability) [compound 204] | 2.2 Fold
11 | 162 (AVVALPAALIVP; Advanced Macromolecule Transduction Domain (aMTD) Sequences for Improvement of Cell-Permeability) [compound 162] | 8.2 Fold
12 | 101 (LVALAPVAAVLP; Advanced Macromolecule Transduction Domain (aMTD) Sequences for Improvement of Cell-Permeability) [compound 101] | 4.5 Fold
13 | 63 (AALLVPALVAVP; Advanced Macromolecule Transduction Domain (aMTD) Sequences for Improvement of Cell-Permeability) [compound 63] | 1.9 Fold
14 | 81 (AALLPALAALLP; Advanced Macromolecule Transduction Domain (aMTD) Sequences for Improvement of Cell-Permeability) [compound 81] | 6.9 Fold
15 | 164 (LAAVLPALLAAP; Advanced Macromolecule Transduction Domain (aMTD) Sequences for Improvement of Cell-Permeability) [compound 164] | 8.2 Fold
16 | 123 (AAIIVPAALLAP; Advanced Macromolecule Transduction Domain (aMTD) Sequences for Improvement of Cell-Permeability) [compound 123] | 2.9 Fold
17 | 44 (ALAVPVALLVAP; Advanced Macromolecule Transduction Domain (aMTD) Sequences for Improvement of Cell-Permeability) [compound 44] | 1.6 Fold
18 | 104 (AVVAAPLVLALP; Advanced Macromolecule Transduction Domain (aMTD) Sequences for Improvement of Cell-Permeability) [compound 104] | 7.3 Fold
19 | 144 (VLAIVPAVALAP; Advanced Macromolecule Transduction Domain (aMTD) Sequences for Improvement of Cell-Permeability) [compound 144] | 8.8 Fold
20 | 42 (VAALPVVAVVAP; Advanced Macromolecule Transduction Domain (aMTD) Sequences for Improvement of Cell-Permeability) [compound 42] | 2.5 Fold
21 | 163 (LALVLPAALAAP; Advanced Macromolecule Transduction Domain (aMTD) Sequences for Improvement of Cell-Permeability) [compound 163] | 4.1 Fold
22 | 808 (LVVLAAAPLAVP; Advanced Macromolecule Transduction Domain (aMTD) Sequences for Improvement of Cell-Permeability) [compound 808] | 11.5 Fold
23 | 102 (LALAPAALALLP; Advanced Macromolecule Transduction Domain (aMTD) Sequences for Improvement of Cell-Permeability) [compound 102] | 1.4 Fold
24 | 879 (AAIVLLPAVVVP; Advanced Macromolecule Transduction Domain (aMTD) Sequences for Improvement of Cell-Permeability) [compound 879] | 7.2 Fold

same assay, conditions: cell-permeability of aMTD-fused CRA recombinant protein relative to reference CPP (B: MTM12)

Row | Substance | Relative Ratio (Fold) B
25 | 503 (AAIIIVLPAALP; Advanced Macromolecule Transduction Domain (aMTD) Sequences for Improvement of Cell-Permeability) [compound 503] | 11.8 Fold
26 | 224 (ILAAVPIALAAP; Advanced Macromolecule Transduction Domain (aMTD) Sequences for Improvement of Cell-Permeability) [compound 224] | 10.6 Fold
27 | 165 (ALAVPVALAIVP; Advanced Macromolecule Transduction Domain (aMTD) Sequences for Improvement of Cell-Permeability) [compound 165] | 13.2 Fold
28 | 442 (ALAALVPAVLVP; Advanced Macromolecule Transduction Domain (aMTD) Sequences for Improvement of Cell-Permeability) [compound 442] | 13.6 Fold
29 | 563 (ALAVIVVPALAP; Advanced Macromolecule Transduction Domain (aMTD) Sequences for Improvement of Cell-Permeability) [compound 563] | 31.4 Fold
30 | 481 (AIAIAIVPVALP; Advanced Macromolecule Transduction Domain (aMTD) Sequences for Improvement of Cell-Permeability) [compound 481] | 23.0 Fold
31 | 285 (AIVLLPAAVVAP; Advanced Macromolecule Transduction Domain (aMTD) Sequences for Improvement of Cell-Permeability) [compound 285] | 8.9 Fold

same assay, conditions: cell-permeability of aMTD-fused CRA recombinant protein relative to reference CPP (C: MTD85)

Row | Substance | Relative Ratio (Fold) C
32 | 503 (AAIIIVLPAALP; Advanced Macromolecule Transduction Domain (aMTD) Sequences for Improvement of Cell-Permeability) [compound 503] | 5.9 Fold
33 | 224 (ILAAVPIALAAP; Advanced Macromolecule Transduction Domain (aMTD) Sequences for Improvement of Cell-Permeability) [compound 224] | 5.3 Fold
34 | 165 (ALAVPVALAIVP; Advanced Macromolecule Transduction Domain (aMTD) Sequences for Improvement of Cell-Permeability) [compound 165] | 6.7 Fold
35 | 826 (LVALAAPIIAVP; Advanced Macromolecule Transduction Domain (aMTD) Sequences for Improvement of Cell-Permeability) [compound 826] | 16.6 Fold
36 | 563 (ALAVIVVPALAP; Advanced Macromolecule Transduction Domain (aMTD) Sequences for Improvement of Cell-Permeability) [compound 563] | 15.9 Fold
37 | 825 (IVAVIVAPAVAP; Advanced Macromolecule Transduction Domain (aMTD) Sequences for Improvement of Cell-Permeability) [compound 825] | 23.6 Fold
38 | 481 (AIAIAIVPVALP; Advanced Macromolecule Transduction Domain (aMTD) Sequences for Improvement of Cell-Permeability) [compound 481] | 11.6 Fold

same assay, conditions: cell-permeability of rPeptide relative to the average of 240 aMTDs

Row | Substance | Relative Ratio to aMTD AVE
39 | 606 (AAAIAAIPIIIP) [compound 606] | 0.20
40 | 49 (VVPAAPAVPVVP) [compound 49] | 0.18
41 | 772 (LPVAPVIPIIVP) [compound 772] | 0.16

same assay, conditions: cell-permeability relative to reference CPP MTD85 (C type)

Row | Substance | Relative Ratio (Fold) C
42 | 204 (LIAALPAVAALP; Advanced Macromolecule Transduction Domain (aMTD) Sequences for Improvement of Cell-Permeability) [compound 204] | 0.8 Fold
43 | 162 (AVVALPAALIVP; Advanced Macromolecule Transduction Domain (aMTD) Sequences for Improvement of Cell-Permeability) [compound 162] | 2.8 Fold
44 | 101 (LVALAPVAAVLP; Advanced Macromolecule Transduction Domain (aMTD) Sequences for Improvement of Cell-Permeability) [compound 101] | 1.5 Fold
45 | 63 (AALLVPALVAVP; Advanced Macromolecule Transduction Domain (aMTD) Sequences for Improvement of Cell-Permeability) [compound 63] | 0.7 Fold
46 | 81 (AALLPALAALLP; Advanced Macromolecule Transduction Domain (aMTD) Sequences for Improvement of Cell-Permeability) [compound 81] | 2.3 Fold
47 | 164 (LAAVLPALLAAP; Advanced Macromolecule Transduction Domain (aMTD) Sequences for Improvement of Cell-Permeability) [compound 164] | 2.8 Fold
48 | 123 (AAIIVPAALLAP; Advanced Macromolecule Transduction Domain (aMTD) Sequences for Improvement of Cell-Permeability) [compound 123] | 1.0 Fold
49 | 44 (ALAVPVALLVAP; Advanced Macromolecule Transduction Domain (aMTD) Sequences for Improvement of Cell-Permeability) [compound 44] | 0.5 Fold
50 | 104 (AVVAAPLVLALP; Advanced Macromolecule Transduction Domain (aMTD) Sequences for Improvement of Cell-Permeability) [compound 104] | 2.5 Fold
51 | 144 (VLAIVPAVALAP; Advanced Macromolecule Transduction Domain (aMTD) Sequences for Improvement of Cell-Permeability) [compound 144] | 3.0 Fold
52 | 42 (VAALPVVAVVAP; Advanced Macromolecule Transduction Domain (aMTD) Sequences for Improvement of Cell-Permeability) [compound 42] | 0.8 Fold
53 | 849 (AVILLAPLIAAP; Advanced Macromolecule Transduction Domain (aMTD) Sequences for Improvement of Cell-Permeability) [compound 849] | 2.8 Fold
54 | 163 (LALVLPAALAAP; Advanced Macromolecule Transduction Domain (aMTD) Sequences for Improvement of Cell-Permeability) [compound 163] | 1.4 Fold
55 | 808 (LVVLAAAPLAVP; Advanced Macromolecule Transduction Domain (aMTD) Sequences for Improvement of Cell-Permeability) [compound 808] | 3.9 Fold
56 | 102 (LALAPAALALLP; Advanced Macromolecule Transduction Domain (aMTD) Sequences for Improvement of Cell-Permeability) [compound 102] | 0.5 Fold
57 | 879 (AAIVLLPAVVVP; Advanced Macromolecule Transduction Domain (aMTD) Sequences for Improvement of Cell-Permeability) [compound 879] | 2.4 Fold

same assay, conditions: cell-permeability relative to reference CPP MTM12 (B type)

Row | Substance | Relative Ratio (Fold) B
58 | 204 (LIAALPAVAALP; Advanced Macromolecule Transduction Domain (aMTD) Sequences for Improvement of Cell-Permeability) [compound 204] | 1.5 Fold
59 | 162 (AVVALPAALIVP; Advanced Macromolecule Transduction Domain (aMTD) Sequences for Improvement of Cell-Permeability) [compound 162] | 5.5 Fold
60 | 101 (LVALAPVAAVLP; Advanced Macromolecule Transduction Domain (aMTD) Sequences for Improvement of Cell-Permeability) [compound 101] | 3.0 Fold
61 | 63 (AALLVPALVAVP; Advanced Macromolecule Transduction Domain (aMTD) Sequences for Improvement of Cell-Permeability) [compound 63] | 1.3 Fold
62 | 81 (AALLPALAALLP; Advanced Macromolecule Transduction Domain (aMTD) Sequences for Improvement of Cell-Permeability) [compound 81] | 4.6 Fold
63 | 164 (LAAVLPALLAAP; Advanced Macromolecule Transduction Domain (aMTD) Sequences for Improvement of Cell-Permeability) [compound 164] | 5.5 Fold
64 | 123 (AAIIVPAALLAP; Advanced Macromolecule Transduction Domain (aMTD) Sequences for Improvement of Cell-Permeability) [compound 123] | 2.0 Fold
65 | 44 (ALAVPVALLVAP; Advanced Macromolecule Transduction Domain (aMTD) Sequences for Improvement of Cell-Permeability) [compound 44] | 1.1 Fold
66 | 104 (AVVAAPLVLALP; Advanced Macromolecule Transduction Domain (aMTD) Sequences for Improvement of Cell-Permeability) [compound 104] | 4.9 Fold
67 | 144 (VLAIVPAVALAP; Advanced Macromolecule Transduction Domain (aMTD) Sequences for Improvement of Cell-Permeability) [compound 144] | 5.9 Fold
68 | 42 (VAALPVVAVVAP; Advanced Macromolecule Transduction Domain (aMTD) Sequences for Improvement of Cell-Permeability) [compound 42] | 1.7 Fold
69 | 163 (LALVLPAALAAP; Advanced Macromolecule Transduction Domain (aMTD) Sequences for Improvement of Cell-Permeability) [compound 163] | 2.4 Fold
70 | 808 (LVVLAAAPLAVP; Advanced Macromolecule Transduction Domain (aMTD) Sequences for Improvement of Cell-Permeability) [compound 808] | 7.6 Fold
71 | 102 (LALAPAALALLP; Advanced Macromolecule Transduction Domain (aMTD) Sequences for Improvement of Cell-Permeability) [compound 102] | 0.9 Fold
72 | 879 (AAIVLLPAVVVP; Advanced Macromolecule Transduction Domain (aMTD) Sequences for Improvement of Cell-Permeability) [compound 879] | 4.8 Fold
